Data taken from patent publication US12655116B2, “Substituted isophthalic acid diamides” (Bayer Aktiengesellschaft, priority 2020, dated 2026).

Assays:
VIOTR [1] = assay: Pre-emergence herbicidal action against VIOTR; format: in vivo, Viola tricolor
Procedure, shortened: (§1)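 Visual rating at 3 weeks vs untreated pots; 0–100% scale, 100% = plants died. Treatment: aqueous WP/EC spray onto covering soil, 600–800 l/ha, 0.2% wetter, seeds in sandy loam.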

SETVI [2] = assay: Pre-emergence herbicidal action against SETVI; format: in vivo, Setaria viridis; settings: dosage 80 g/ha
Procedure, shortened: as §1

DIGSA [3] = assay: Post-emergence herbicidal action against DIGSA; format: in vivo, Digitaria sanguinalis; settings: for Post-emergence action against DIGSA: 20 g/ha
Procedure, shortened: (§2)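 Weeds in sandy loam soil received a post-emergence spray at the one-leaf stage. Compounds were applied as WP or EC in water, 600 to 800 l/ha, with 0.2% wetting agent. Activity in % was judged visually after roughly 3 weeks against untreated plants.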

ABUTH [4] = assay: Post-emergence herbicidal action against ABUTH; format: in vivo, Abutilon theophrasti; settings: visual assessment about 3 weeks after treatment vs untreated controls
Procedure, shortened: as §2

AMARE [5] = assay: Post-emergence herbicidal action against AMARE; format: in vivo, Amaranthus retroflexus; settings: 20 g/ha, visual assessment about 3 weeks after treatment, 100% = plants have died, 0% = like control plants
Procedure, shortened: as §2

VERPE [6] = assay: Pre-emergence herbicidal action against VERPE; format: in vivo, Veronica persica; settings: dosage 80 g/ha
Procedure, shortened: as §1

LOLRI = assay: Pre-emergence herbicidal action against LOLRI; format: in vivo, Lolium rigidum
Text: Seeds of monocotyledonous and dicotyledonous weed plants and crop plants are laid out in sandy loam soil in wood-fiber pots and covered with soil. The compounds of the invention, formulated in the form of wettable powders (WP) or as emulsion concentrates (EC), are then applied to the surface of the covering soil in the form of an aqueous suspension or emulsion at a water application rate equivalent to 600 to 800 l/ha, with addition of 0.2% wetting agent. After the treatment, the pots are placed in a greenhouse and kept under good growth conditions for the trial plants. The damage to the test plants is scored visually after a test period of 3 weeks by comparison with untreated controls (herbicidal activity in percent (%): 100% activity=the plants have died, 0% activity=like control plants). […] The tables below illustrate, in an illustrative manner, the post-emergence herbicidal action of the compounds of the invention, the herbicidal activity being stated in percent.

ALOMY [7] = assay: Pre-emergence herbicidal action against ALOMY; format: in vivo, Alopecurus myosuroides
Procedure, shortened: as §1

ABUTH [8] = assay: Pre-emergence herbicidal action against ABUTH; format: in vivo, Abutilon theophrasti; settings: for Pre-emergence action against ABUTH (herbicidal activity in percent): dosage 20 g/ha, scored visually after 3 weeks vs untreated controls, 100% = plants have died, 0% = like control plants
Procedure, shortened: as §1

SETVI [9] = assay: Post-emergence herbicidal action against SETVI; format: in vivo, Setaria viridis
Procedure, shortened: as §2

AMARE [10] = assay: Pre-emergence herbicidal action against AMARE; format: in vivo, Amaranthus retroflexus
Procedure, shortened: as §1

ECHCG [11] = assay: Post-emergence herbicidal action against ECHCG; format: in vivo, Echinochloa crus-galli
Procedure, shortened: as §2

PHBPU [12] = assay: Post-emergence herbicidal action against PHBPU; format: in vivo, Pharbitis purpurea
Procedure, shortened: as §2

ALOMY [13] = assay: Post-emergence herbicidal action against ALOMY; format: in vivo, Alopecurus myosuroides; settings: visual assessment about 3 weeks after treatment vs untreated controls
Procedure, shortened: as §2

ECHCG [14] = assay: Pre-emergence herbicidal action against ECHCG; format: in vivo, Echinochloa crus-galli
Procedure, shortened: as §1

MATIN [15] = assay: Pre-emergence herbicidal action against MATIN; format: in vivo, Matricaria inodora; settings: dosage 80 g/ha
Procedure, shortened: as §1

DIGSA [16] = assay: Pre-emergence herbicidal action against DIGSA; format: in vivo, Digitaria sanguinalis
Procedure, shortened: as §1

VERPE [17] = assay: Post-emergence herbicidal action against VERPE; format: in vivo, Veronica persica; settings: 20 g/ha
Procedure, shortened: as §2

AVEFA = assay: Pre-emergence herbicidal action against AVEFA; format: in vivo, Avena fatua
Procedure, shortened: as §1

VIOTR [18] = assay: Post-emergence herbicidal action against VIOTR; format: in vivo, Viola tricolor; settings: Viola tricolor, 504 h, 20 g/ha
Procedure, shortened: as §2

PHBPU [19] = assay: Pre-emergence herbicidal action against PHBPU; format: in vivo, Pharbitis purpurea; settings: dosage 80 g/ha
Procedure, shortened: as §1

MATIN [20] = assay: Post-emergence herbicidal action against MATIN; format: in vivo, Matricaria inodora
Procedure, shortened: as §2

[21] = 20 g/ha, scored visually after 3 weeks, 100% = plants have died, 0% = like control plants
[22] = 80 g/ha, pre-emergence, scored visually after 3 weeks vs untreated controls (100% = plants have died, 0% = like control plants)
[23] = 80 g/ha, scored visually after 3 weeks vs untreated controls (100% = plants have died, 0% = like control plants)

COCCNC(=O)c1c(C(F)(F)F)ccc(C(=O)Nc2nnnn2C)c1C [Example 1-34]
100%: Pre-emergence action against VIOTR in % (VIOTR [1]; dosage 20 g/ha) | Pre-emergence action against VIOTR in % (VIOTR [1]; dosage 80 g/ha) | Pre-emergence action against SETVI in % (SETVI [2]) | Post-emergence action against ABUTH in % (ABUTH [4]; dosage 20 g/ha) | Post-emergence action at 20 g/ha against AMARE in % (AMARE [5]) | Pre-emergence action against VERPE in % (VERPE [6]) | Pre-emergence action against ALOMY (herbicidal activity) (ALOMY [7]; [22]) | Pre-emergence action against ABUTH (herbicidal activity) (ABUTH [8]; [23]) | Pre-emergence action against AMARE in % (AMARE [10]; 20 g/ha, scored visually after 3 weeks vs untreated controls, 100% = plants have died, 0% = like control plants) | Pre-emergence action against AMARE in % (AMARE [10]; [23]) | Pre-emergence action against DIGSA in % (DIGSA [16]; dosage 20 g/ha) | Pre-emergence action against DIGSA in % (DIGSA [16]; dosage 80 g/ha)
80%: Post-emergence action against DIGSA in % (DIGSA [3]; 5 g/ha) | Pre-emergence action against LOLRI in % (LOLRI; 80 g/ha) | Pre-emergence action against ALOMY (ALOMY [7]; [21]) | Pre-emergence action against ABUTH (herbicidal activity in percent) (ABUTH [8]) | Post-emergence action against SETVI in % (SETVI [9]; dosage 5 g/ha)
90%: Post-emergence action against DIGSA (DIGSA [3]) | Post-emergence action against ABUTH in % (ABUTH [4]; dosage 5 g/ha) | Post-emergence action against SETVI in % (SETVI [9]; dosage 20 g/ha) | Post-emergence action against ECHCG in % (ECHCG [11]; dosage 5 g/ha) | Post-emergence action against ECHCG in % (ECHCG [11]; dosage 20 g/ha) | Post-emergence action against PHBPU in % (PHBPU [12]; dosage 5 g/ha) | Post-emergence action against PHBPU in % (PHBPU [12]; dosage 20 g/ha) | Post-emergence action against ALOMY in % (ALOMY [13]; dosage 20 g/ha) | Pre-emergence action against ECHCG in % (ECHCG [14]; 80 g/ha) | Pre-emergence action against MATIN in % (MATIN [15]) | Post-emergence action against VERPE in % (VERPE [17])

CCNC(=O)c1c(Br)ccc(C(=O)Nc2nnnn2C)c1Br [Example 1-343]
80%: pest or weed control at 80 g/ha (AVEFA; Avena fatua, 504 h, 80 g/ha, pre-emergence) | pest or weed control at 20 g/ha (AVEFA; Avena fatua, pre-emergence, 504 h, 20 g/ha, scored visually after 3 weeks, 100% = plants have died, 0% = like control plants) | pest or weed control at 20 g/ha (VIOTR [18]) | pest or weed control at 80 g/ha (VERPE [6]; Veronica persica, 504 h) | pest or weed control at 80 g/ha (LOLRI; Lolium rigidum, 504 h, 80 g/ha) | pest or weed control at 5 g/ha (ECHCG [11]; Echinochloa crus-galli, 504 h, dosage 5 g/ha) | pest or weed control at 20 g/ha (PHBPU [12]; Ipomoea purpurea, 504 h, dosage 20 g/ha) | pest or weed control at 20 g/ha (VERPE [17]; Veronica persica, 504 h)
100%: pest or weed control at 80 g/ha (VIOTR [1]; Viola tricolor, 504 h, dosage 80 g/ha) | pest or weed control at 80 g/ha (SETVI [2]; Setaria viridis, 504 h) | pest or weed control at 20 g/ha (AMARE [5]; Amaranthus retroflexus, 504 h) | pest or weed control at 80 g/ha (ALOMY [7]; Alopecurus myosuroides, 504 h, 80 g/ha, pre-emergence, scored visually after 3 weeks vs untreated controls (100% = plants have died, 0% = like control plants)) | pest or weed control at 80 g/ha (ABUTH [8]; Abutilon theophrasti, 504 h, 80 g/ha, scored visually after 3 weeks vs untreated controls (100% = plants have died, 0% = like control plants)) | pest or weed control at 20 g/ha (SETVI [9]; Setaria viridis, 504 h, dosage 20 g/ha) | pest or weed control at 20 g/ha (AMARE [10]; Amaranthus retroflexus, 504 h, 20 g/ha, scored visually after 3 weeks vs untreated controls, 100% = plants have died, 0% = like control plants) | pest or weed control at 80 g/ha (AMARE [10]; Amaranthus retroflexus, 504 h, 80 g/ha, scored visually after 3 weeks vs untreated controls, 100% = plants have died, 0% = like control plants) | pest or weed control at 20 g/ha (ALOMY [13]; Alopecurus myosuroides, 504 h, dosage 20 g/ha) | pest or weed control at 80 g/ha (MATIN [15]; Tripleurospermum inodorum, 504 h)
90%: pest or weed control at 5 g/ha (ABUTH [4]; Abutilon theophrasti, 504 h, dosage 5 g/ha) | pest or weed control at 20 g/ha (ABUTH [4]; Abutilon theophrasti, 504 h, dosage 20 g/ha) | pest or weed control at 20 g/ha (ECHCG [11]; Echinochloa crus-galli, 504 h, dosage 20 g/ha) | pest or weed control at 5 g/ha (ALOMY [13]; Alopecurus myosuroides, 504 h, dosage 5 g/ha) | pest or weed control at 80 g/ha (ECHCG [14]; Echinochloa crus-galli, 504 h, 80 g/ha)

Cn1nnnc1NC(=O)c1ccc(C(F)F)c(C(=O)NC2CCC2)c1Cl [Example 1-164]
100%: Pre-emergence action against AVEFA (AVEFA; [21]) | Pre-emergence action against AVEFA in % (AVEFA; 80 g/ha, pre-emergence) | Pre-emergence action against PHBPU in % (PHBPU [19]) | Pre-emergence action against LOLRI in % (LOLRI; 20 g/ha) | Pre-emergence action against LOLRI in % (LOLRI; 80 g/ha) | Pre-emergence action against ALOMY (herbicidal activity) (ALOMY [7]; [22]) | Pre-emergence action against AMARE in % (AMARE [10]; [23]) | Pre-emergence action against ECHCG in % (ECHCG [14]; 20 g/ha) | Pre-emergence action against ECHCG in % (ECHCG [14]; 80 g/ha) | Pre-emergence action against MATIN in % (MATIN [15])
80%: Post-emergence action against DIGSA (DIGSA [3]) | Post-emergence action against ABUTH in % (ABUTH [4]; dosage 5 g/ha) | Post-emergence action against ABUTH in % (ABUTH [4]; dosage 20 g/ha) | Pre-emergence action against ABUTH (herbicidal activity) (ABUTH [8]; [23]) | Pre-emergence action against ABUTH (herbicidal activity in percent) (ABUTH [8]) | Post-emergence action against ECHCG in % (ECHCG [11]; dosage 5 g/ha) | Post-emergence action against MATIN in % (MATIN [20]; dosage 5 g/ha) | Post-emergence action against MATIN in % (MATIN [20]; dosage 20 g/ha) | Pre-emergence action against DIGSA in % (DIGSA [16]; dosage 80 g/ha)
90%: Post-emergence action at 20 g/ha against AMARE in % (AMARE [5]) | Pre-emergence action against VERPE in % (VERPE [6]) | Post-emergence action against ECHCG in % (ECHCG [11]; dosage 20 g/ha) | Post-emergence action against PHBPU in % (PHBPU [12]; dosage 5 g/ha) | Post-emergence action against PHBPU in % (PHBPU [12]; dosage 20 g/ha)
